Assay results published in ChEMBL document CHEMBL1268953, “Discovery of novel 2-aryl-4-benzoyl-imidazoles targeting the colchicines binding site in tubulin as potential anticancer agents” (J Med Chem, 2010).

Test system: A-375
Test: Cytotoxicity against human A375 cells after 48 hrs by sulforhodamine B assay
Type: functional, cell-based
Details: Homo sapiens, A-375, 48 h

| Structure (SMILES) | IC50 [µM] |
| --- | --- |
| O=C(c1ccc(F)cc1)c1cnc(-c2ccccc2)n1S(=O)(=O)c1ccccc1 | 0.63 |
| O=C(c1cccc(F)c1)c1cnc(-c2ccccc2)n1S(=O)(=O)c1ccccc1 | > 10 |
| COc1ccc(C(=O)c2c[nH]c(-c3ccccc3)n2)cc1OC | > 10 |
| COc1ccc(C(=O)n2ccnc2-c2ccccc2)cc1 | > 10 |
| COc1cc(C(=O)n2ccnc2-c2ccccc2)cc(OC)c1OC | > 10 |
| O=[N+]([O-])c1ccc(-c2nccn2S(=O)(=O)c2ccccc2)cc1 | > 10 |
| COc1cc(C(=O)c2cnc(-c3cc(OC)c(OC)c(OC)c3)n2S(=O)(=O)c2ccccc2)cc(OC)c1OC | > 10 |
| COc1cc(-c2ncc(C(=O)c3ccc(F)cc3)n2S(=O)(=O)c2ccccc2)cc(OC)c1OC | 3.84 |
| O=S(=O)(c1ccccc1)n1ccnc1-c1ccc(OCc2ccccc2)cc1 | > 10 |
| COc1cc(C(=O)c2c[nH]c(-c3ccc(F)cc3)n2)cc(OC)c1OC | 0.205 |
| O=C(c1ccc(F)cc1)c1cnc(-c2ccc(Cl)cc2)n1S(=O)(=O)c1ccccc1 | 0.088 |
| Cc1ccc(-c2nc(C(=O)c3ccc(F)cc3)c[nH]2)cc1 | 0.142 |
| COc1cc(C(=O)c2c[nH]c(-c3cc(OC)c(OC)c(OC)c3)n2)cc(OC)c1OC | 4.8 |
| COc1cc(-c2nc(C(=O)c3ccc(F)cc3)c[nH]2)cc(OC)c1OC | > 10 |
| O=C(c1cc(O)c(O)c(O)c1)c1c[nH]c(-c2ccc(Cl)cc2)n1 | 3.9 |

Test system: DU-145
Test: cells
Details: Homo sapiens, DU-145, 48 h
Description: Cytotoxicity against human DU145 cells after 48 hrs by sulforhodamine B assay

| Structure (SMILES) | IC50 [µM] |
| --- | --- |
| O=C(c1ccc(F)cc1)c1cnc(-c2ccccc2)n1S(=O)(=O)c1ccccc1 | 0.846 |
| O=C(c1cccc(F)c1)c1cnc(-c2ccccc2)n1S(=O)(=O)c1ccccc1 | > 10 |
| COc1ccc(C(=O)c2c[nH]c(-c3ccccc3)n2)cc1OC | > 10 |
| COc1ccc(C(=O)n2ccnc2-c2ccccc2)cc1 | > 10 |
| COc1cc(C(=O)n2ccnc2-c2ccccc2)cc(OC)c1OC | > 10 |
| O=[N+]([O-])c1ccc(-c2nccn2S(=O)(=O)c2ccccc2)cc1 | > 10 |
| COc1cc(C(=O)c2cnc(-c3cc(OC)c(OC)c(OC)c3)n2S(=O)(=O)c2ccccc2)cc(OC)c1OC | > 10 |
| COc1cc(-c2ncc(C(=O)c3ccc(F)cc3)n2S(=O)(=O)c2ccccc2)cc(OC)c1OC | > 10 |
| O=S(=O)(c1ccccc1)n1ccnc1-c1ccc(OCc2ccccc2)cc1 | > 10 |
| COc1cc(C(=O)c2c[nH]c(-c3ccc(F)cc3)n2)cc(OC)c1OC | 0.132 |
| O=C(c1ccc(F)cc1)c1cnc(-c2ccc(Cl)cc2)n1S(=O)(=O)c1ccccc1 | 0.064 |
| Cc1ccc(-c2nc(C(=O)c3ccc(F)cc3)c[nH]2)cc1 | 0.078 |
| COc1cc(C(=O)c2c[nH]c(-c3cc(OC)c(OC)c(OC)c3)n2)cc(OC)c1OC | > 10 |
| COc1cc(-c2nc(C(=O)c3ccc(F)cc3)c[nH]2)cc(OC)c1OC | > 10 |
| O=C(c1cc(O)c(O)c(O)c1)c1c[nH]c(-c2ccc(Cl)cc2)n1 | 10 |

Test system: PC-3
Test: cells
Details: Homo sapiens, PC-3, 48 h
Description: Cytotoxicity against human PC3 cells after 48 hrs by sulforhodamine B assay

| Structure (SMILES) | IC50 [µM] |
| --- | --- |
| O=C(c1ccc(F)cc1)c1cnc(-c2ccccc2)n1S(=O)(=O)c1ccccc1 | 2.23 |
| O=C(c1cccc(F)c1)c1cnc(-c2ccccc2)n1S(=O)(=O)c1ccccc1 | > 10 |
| COc1ccc(C(=O)c2c[nH]c(-c3ccccc3)n2)cc1OC | > 10 |
| COc1ccc(C(=O)n2ccnc2-c2ccccc2)cc1 | > 10 |
| COc1cc(C(=O)n2ccnc2-c2ccccc2)cc(OC)c1OC | > 10 |
| O=[N+]([O-])c1ccc(-c2nccn2S(=O)(=O)c2ccccc2)cc1 | > 10 |
| COc1cc(C(=O)c2cnc(-c3cc(OC)c(OC)c(OC)c3)n2S(=O)(=O)c2ccccc2)cc(OC)c1OC | > 10 |
| COc1cc(-c2ncc(C(=O)c3ccc(F)cc3)n2S(=O)(=O)c2ccccc2)cc(OC)c1OC | > 10 |
| O=S(=O)(c1ccccc1)n1ccnc1-c1ccc(OCc2ccccc2)cc1 | > 10 |
| COc1cc(C(=O)c2c[nH]c(-c3ccc(F)cc3)n2)cc(OC)c1OC | 0.169 |
| O=C(c1ccc(F)cc1)c1cnc(-c2ccc(Cl)cc2)n1S(=O)(=O)c1ccccc1 | 0.076 |
| Cc1ccc(-c2nc(C(=O)c3ccc(F)cc3)c[nH]2)cc1 | 0.065 |
| COc1cc(C(=O)c2c[nH]c(-c3cc(OC)c(OC)c(OC)c3)n2)cc(OC)c1OC | > 10 |
| COc1cc(-c2nc(C(=O)c3ccc(F)cc3)c[nH]2)cc(OC)c1OC | > 10 |
| O=C(c1cc(O)c(O)c(O)c1)c1c[nH]c(-c2ccc(Cl)cc2)n1 | 10 |

Test system: LNCaP
Test: Cytotoxicity against human LNCAP cells after 48 hrs by sulforhodamine B assay
Type: functional, cell-based
Details: not given

| Structure (SMILES) | IC50 [µM] |
| --- | --- |
| O=C(c1ccc(F)cc1)c1cnc(-c2ccccc2)n1S(=O)(=O)c1ccccc1 | 0.573 |
| O=C(c1cccc(F)c1)c1cnc(-c2ccccc2)n1S(=O)(=O)c1ccccc1 | > 10 |
| COc1ccc(C(=O)c2c[nH]c(-c3ccccc3)n2)cc1OC | > 10 |
| COc1ccc(C(=O)n2ccnc2-c2ccccc2)cc1 | > 10 |
| COc1cc(C(=O)n2ccnc2-c2ccccc2)cc(OC)c1OC | > 10 |
| O=[N+]([O-])c1ccc(-c2nccn2S(=O)(=O)c2ccccc2)cc1 | > 10 |
| COc1cc(C(=O)c2cnc(-c3cc(OC)c(OC)c(OC)c3)n2S(=O)(=O)c2ccccc2)cc(OC)c1OC | > 10 |
| COc1cc(-c2ncc(C(=O)c3ccc(F)cc3)n2S(=O)(=O)c2ccccc2)cc(OC)c1OC | > 10 |
| O=S(=O)(c1ccccc1)n1ccnc1-c1ccc(OCc2ccccc2)cc1 | > 10 |
| COc1cc(C(=O)c2c[nH]c(-c3ccc(F)cc3)n2)cc(OC)c1OC | 0.098 |
| O=C(c1ccc(F)cc1)c1cnc(-c2ccc(Cl)cc2)n1S(=O)(=O)c1ccccc1 | 0.048 |
| Cc1ccc(-c2nc(C(=O)c3ccc(F)cc3)c[nH]2)cc1 | 0.045 |
| COc1cc(C(=O)c2c[nH]c(-c3cc(OC)c(OC)c(OC)c3)n2)cc(OC)c1OC | > 10 |
| COc1cc(-c2nc(C(=O)c3ccc(F)cc3)c[nH]2)cc(OC)c1OC | > 10 |
| O=C(c1cc(O)c(O)c(O)c1)c1c[nH]c(-c2ccc(Cl)cc2)n1 | 10 |

Test system: not listed separately
Test: Cytotoxicity against human WM164 cells after 48 hrs by sulforhodamine B assay
Type: functional, cell-based
Details: Homo sapiens, WM164, 48 h

| Structure (SMILES) | IC50 [µM] |
| --- | --- |
| O=C(c1ccc(F)cc1)c1cnc(-c2ccccc2)n1S(=O)(=O)c1ccccc1 | 0.596 |
| O=C(c1cccc(F)c1)c1cnc(-c2ccccc2)n1S(=O)(=O)c1ccccc1 | > 10 |
| COc1ccc(C(=O)c2c[nH]c(-c3ccccc3)n2)cc1OC | > 10 |
| COc1ccc(C(=O)n2ccnc2-c2ccccc2)cc1 | > 10 |
| COc1cc(C(=O)n2ccnc2-c2ccccc2)cc(OC)c1OC | > 10 |
| O=[N+]([O-])c1ccc(-c2nccn2S(=O)(=O)c2ccccc2)cc1 | > 10 |
| COc1cc(C(=O)c2cnc(-c3cc(OC)c(OC)c(OC)c3)n2S(=O)(=O)c2ccccc2)cc(OC)c1OC | > 10 |
| COc1cc(-c2ncc(C(=O)c3ccc(F)cc3)n2S(=O)(=O)c2ccccc2)cc(OC)c1OC | > 10 |
| O=S(=O)(c1ccccc1)n1ccnc1-c1ccc(OCc2ccccc2)cc1 | > 10 |
| COc1cc(C(=O)c2c[nH]c(-c3ccc(F)cc3)n2)cc(OC)c1OC | 0.073 |
| O=C(c1ccc(F)cc1)c1cnc(-c2ccc(Cl)cc2)n1S(=O)(=O)c1ccccc1 | 0.07 |
| Cc1ccc(-c2nc(C(=O)c3ccc(F)cc3)c[nH]2)cc1 | 0.156 |
| COc1cc(C(=O)c2c[nH]c(-c3cc(OC)c(OC)c(OC)c3)n2)cc(OC)c1OC | > 10 |
| COc1cc(-c2nc(C(=O)c3ccc(F)cc3)c[nH]2)cc(OC)c1OC | > 10 |
| O=C(c1cc(O)c(O)c(O)c1)c1c[nH]c(-c2ccc(Cl)cc2)n1 | 2.1 |

Test system: not listed separately
Test: Cytotoxicity against mouse B16-F1 cells after 48 hrs by sulforhodamine B assay
Type: functional, cell-based
Details: Mus musculus, B16-F1, 48 h

| Structure (SMILES) | IC50 [µM] |
| --- | --- |
| O=C(c1ccc(F)cc1)c1cnc(-c2ccccc2)n1S(=O)(=O)c1ccccc1 | 0.946 |
| O=C(c1cccc(F)c1)c1cnc(-c2ccccc2)n1S(=O)(=O)c1ccccc1 | > 10 |
| COc1ccc(C(=O)c2c[nH]c(-c3ccccc3)n2)cc1OC | > 10 |
| COc1ccc(C(=O)n2ccnc2-c2ccccc2)cc1 | > 10 |
| COc1cc(C(=O)n2ccnc2-c2ccccc2)cc(OC)c1OC | > 10 |
| O=[N+]([O-])c1ccc(-c2nccn2S(=O)(=O)c2ccccc2)cc1 | > 10 |
| COc1cc(C(=O)c2cnc(-c3cc(OC)c(OC)c(OC)c3)n2S(=O)(=O)c2ccccc2)cc(OC)c1OC | > 10 |
| COc1cc(-c2ncc(C(=O)c3ccc(F)cc3)n2S(=O)(=O)c2ccccc2)cc(OC)c1OC | > 10 |
| O=S(=O)(c1ccccc1)n1ccnc1-c1ccc(OCc2ccccc2)cc1 | > 10 |
| COc1cc(C(=O)c2c[nH]c(-c3ccc(F)cc3)n2)cc(OC)c1OC | 0.32 |
| O=C(c1ccc(F)cc1)c1cnc(-c2ccc(Cl)cc2)n1S(=O)(=O)c1ccccc1 | 0.107 |
| Cc1ccc(-c2nc(C(=O)c3ccc(F)cc3)c[nH]2)cc1 | 0.222 |
| COc1cc(C(=O)c2c[nH]c(-c3cc(OC)c(OC)c(OC)c3)n2)cc(OC)c1OC | > 10 |
| COc1cc(-c2nc(C(=O)c3ccc(F)cc3)c[nH]2)cc(OC)c1OC | > 10 |
| O=C(c1cc(O)c(O)c(O)c1)c1c[nH]c(-c2ccc(Cl)cc2)n1 | 1.81 |

Test system: PPC-1
Test: Cytotoxicity against human PPC1 cells after 48 hrs by sulforhodamine B assay
Type: functional, cell-based
Details: Homo sapiens, PPC-1, 48 h

| Structure (SMILES) | IC50 [µM] |
| --- | --- |
| O=C(c1ccc(F)cc1)c1cnc(-c2ccccc2)n1S(=O)(=O)c1ccccc1 | 0.575 |
| O=C(c1cccc(F)c1)c1cnc(-c2ccccc2)n1S(=O)(=O)c1ccccc1 | > 10 |
| COc1ccc(C(=O)c2c[nH]c(-c3ccccc3)n2)cc1OC | > 10 |
| COc1ccc(C(=O)n2ccnc2-c2ccccc2)cc1 | > 10 |
| COc1cc(C(=O)n2ccnc2-c2ccccc2)cc(OC)c1OC | > 10 |
| O=[N+]([O-])c1ccc(-c2nccn2S(=O)(=O)c2ccccc2)cc1 | > 10 |
| COc1cc(C(=O)c2cnc(-c3cc(OC)c(OC)c(OC)c3)n2S(=O)(=O)c2ccccc2)cc(OC)c1OC | > 10 |
| COc1cc(-c2ncc(C(=O)c3ccc(F)cc3)n2S(=O)(=O)c2ccccc2)cc(OC)c1OC | > 10 |
| O=S(=O)(c1ccccc1)n1ccnc1-c1ccc(OCc2ccccc2)cc1 | > 10 |
| COc1cc(C(=O)c2c[nH]c(-c3ccc(F)cc3)n2)cc(OC)c1OC | 0.081 |
| O=C(c1ccc(F)cc1)c1cnc(-c2ccc(Cl)cc2)n1S(=O)(=O)c1ccccc1 | 0.054 |
| Cc1ccc(-c2nc(C(=O)c3ccc(F)cc3)c[nH]2)cc1 | 0.054 |
| COc1cc(C(=O)c2c[nH]c(-c3cc(OC)c(OC)c(OC)c3)n2)cc(OC)c1OC | > 10 |
| COc1cc(-c2nc(C(=O)c3ccc(F)cc3)c[nH]2)cc(OC)c1OC | > 10 |
| O=C(c1cc(O)c(O)c(O)c1)c1c[nH]c(-c2ccc(Cl)cc2)n1 | > 10 |
